Legend:
Assay type in all cases: in vivo
mosquitoes [1] = assay: John W. Hock fan-driven CO2 trap field test, small amount (R) vs large amount racemic, Danbury Conn.; settings: 14 days; for average mosquitoes caught: CO2 150 ml/min
Procedure: A test similar to example 5 was conducted in Danbury Conn. using fan driven-traps manufactured by John W. Hock Company in Gainesville Fla. using 150 ml/min CO2. To compare the attractiveness of a large amount of racemic 1-octen-3-ol to a small amount of (R)-(-)-1-octen-3-ol, one lure contained 50 mg of (R)-(-)-1-octen-3-ol diluted in 1.5 ml diethyl phthalate, releasing 1.5 mg/day or less was evaluated against a lure containing 1660 mg of racemic 1-octen-3-ol (830 mg of each enantiomer) diluted in 1.5 ml of diethyl phthalate, and releasing approximately 40 mg of 1-octen-3-ol/day. After rotation between the two traps over 14 days, the lure with the 1660 mg of racemic octenol caught an average of 9.4 mosquitoes, while the lure containing 50 mg of (R)-(-)-1-octen-3-ol caught an average of 11.8 mosquitoes, representing an increase of 26%.

mosquitoes [2] = assay: Mosquito Magnet Pro trap field test of 1-decen-3-ol enantiomers, Florida; settings: 1 gram in fibrous lure; for total mosquitoes caught: lures rotated between traps over nine days
Procedure: The tests were conducted in Florida using Mosquito Magnet Pro mosquito traps manufactured by American Biophysics, rotating the lures between traps over a period of nine days, using 1 gram of each test material in a fibrous lure of the type normally used in the traps.

mosquitoes [3] = assay: Mosquito Magnet Liberty trap field test with or without ammonium bicarbonate lure, Redding, Conn.; settings: lure with 800 mg (R)-(-)-1-octen-3-ol in waxy carrier; rotated daily for 15 days
Procedure: A test similar to Example 3 was conducted in Redding, Conn., employing Mosquito Magnet Liberty traps rotated daily for 15 days. One trap was provided with a lure containing 470 mg (R)-(-)-1-octen-3-ol isomer in a waxy carrier plus 5 grams of ammonium bicarbonate provided by a lure containing ammonium bicarbonate in a controlled release polymer matrix, provided by […]-BCS Limited ([…]-BCS Limited […] Road, Treforest Industrial Estate, Pontypridd, CF37 5SU UK) and the second trap was provided with a lure containing 800 mg (R)-(-)-1-octen-3-ol isomer in the waxy carrier. The trap with the 800 mg (R)-(-)-1-octen-3-ol isomer attracted an average of 3.8 mosquitoes daily whereas the traps with only 470 mg (R)-(-)-1-octen-3-ol isomer plus the ammonium carbonate attracted average of 6.9 mosquitoes daily, an average increase of about 82%.

mosquitoes [4] = assay: Mosquito Magnet Liberty trap field test with porous frit, Danbury, Conn.; settings: 1 gram on porous frit, 20-30 mg/day release
Procedure: Tests were conducted with the Mosquito Magnet Liberty model traps manufactured by American Biophysics Corp. Traps were spaced 65-70 feet apart at the edge of a wetland in Danbury, Conn., at least 25 feet from any buildings. 1 gram of test chemical was added to a clean porous frit of the type normally used in the trap, releasing approximately 20-30 mg/day. In the first test, racemic 1-octen-3-ol and (R)-(-)-1-octen-3-ol were rotated among four traps over 8 days. In the second test, (S)-(+)-1-octen-3-ol and no treatment were rotated between three traps over nine days.

mosquitoes [5] = assay: CO2 fan trap (John W. Hock model 1012) field test with wax lures, Danbury, Conn.; settings: wax lure, approx. 0.17 mg/hour release, CO2 approx. 140 ml/minute, average of four three-day cycles
Procedure: The following tests were conducted in Connecticut in September 2004. Mosquito traps model 1012 manufactured by John W. Hock Company in Gainesville, Fla. were used in these experiments. The traps use a stream of CO2 directed in the vicinity of a collection bag, with a fan used to blow mosquitoes into the bag. The light supplied with the trap was turned off. The traps were spaced 65-70 feet apart at the edge of a wetland in Danbury, Conn., at least 25 feet from any buildings. The (R) and (S)-1-octen-3-ol was incorporated into a wax lure of the type manufactured by BioSensory, Inc. and placed near a stream of CO2 which was being released at a rate of approximately 140 ml/minute. The traps were operated from approximately 4:00PM until 9:00AM the next day. Daytime temperatures were 70-75° F. during the trials. Average weight loss from the wax lures during the test was approximately 4 mg/day, or 0.17 mg/hour. Three traps were used, with either (R)-1-Octen-3-ol, (S)-1-Octen-3-ol, or no treatment, rotated among the traps over a three-day cycle. Four complete cycles were performed and the results for each treatment were averaged.
The traps with no attractant were considered as the baseline catch of mosquitoes and the results of the catches with the isomers were compared to this baseline value.

mosquitoes [6] = assay: Mosquito Magnet Pro trap field test with or without ammonia source, Gainesville, Fla.; settings: lure with 230 mg (R)-(-)-1-octen-3-ol; traps producing carbon dioxide and heat; twenty-day cycle
Procedure: The test was conducted in Gainesville, Fla. using Mosquito Magnet Pro model mosquito traps manufactured by American Biophysics Corp. that produced carbon dioxide and heat. The traps were provided with either lures having 230 mg (R)-(-)-1-octen-3-ol isomer or lures with 230 mg (R)-(-)-1-octen-3-ol isomer in combination with a source of ammonia provided by a lure containing ammonium bicarbonate in a controlled release polymer matrix, Bactrocera (Dacus) olae, Product code BF L080, provided by AgriSense-BCS Limited, Taffs Mead Road, Treforest Industrial Estate, Pontypridd, CF37 5SU, UK. The traps were rotated between the locations for a twenty-day cycle.

mosquitoes [7] = assay: Mosquito Magnet Liberty trap field test, effect of (S) isomer on (R) isomer, Danbury Conn.; settings: 14 days
Procedure: A test to compare the effect of the presence of (S)-(+)-1-octen-3-ol on the efficacy of (R)-(-)-1-octen-3-ol was conducted in Danbury Conn. One lure contained 200 mg of (R)-(-)-1-octen-3-ol diluted in diethyl phthalate to slow release to under 1.7 mg/day. The other lure was identical except that it also contained 200 mg of (S)-(+)-1-octen-3-ol (equivalent to 400 mg of racemic 1-octen-3-ol). The lures were rotated over 14 days between two American Biophysics Mosquito Magnet Liberty traps. The lure containing the 200 mg of (R)-(-)-1-octen-3-ol plus 200 mg (S)-(+)-1-octen-3-ol caught an average of 5.6 mosquitoes/day, while the lure containing 200 mg of (R)-(-)-1-octen-3-ol caught an average of 8.1 mosquitoes daily, representing an increase in efficacy of 45%.

Compound `C=CC(O)CCCCC` (racemic) [racemic octenol, 1-octen-3-ol, reference compound] has an average mosquitoes caught (mosquitoes [1]; lure with 1660 mg racemic in 1.5 ml diethyl phthalate, approx. 40 mg/day release) of 9.4 mosquitoes.

With `C=C[C@H](O)CCCCCCC` [(R)-(-)-1-decen-3-ol] the total mosquitoes caught (mosquitoes [2]) was 89 mosquitoes and the “improvement in catch vs (S)-(+)-1-decen-3-ol” value (mosquitoes [2]; nine days) was 89%.

In the case of `C=C[C@H](O)CCCCC` [(R)-(-)-1-octen-3-ol], the “average mosquitoes attracted daily” value (mosquitoes [3]) is reported as 3.8 mosquitoes daily, the “more mosquitoes caught than trap with 50:50 racemic mixture of 1-octen-3-ol” value (mosquitoes [4]; first test, four traps over 8 days) is reported as 18% and the “more mosquitoes captured than the baseline (traps with no attractant)” value (mosquitoes [5]) is reported as 88%. For the same compound, the “average number of mosquitoes attracted daily” value (mosquitoes [6]) was 14 mosquitoes, the “increase in efficacy vs lure also containing 200 mg (S)-(+)-1-octen-3-ol” value (mosquitoes [7]; 200 mg (R) isomer) was 45% and the average mosquitoes caught (mosquitoes [7]; lure with 200 mg (R)-(-)-1-octen-3-ol in diethyl phthalate, release under 1.7 mg/day) was 8.1 mosquitoes daily. For the same compound, the “increase in catch vs lure with 1660 mg racemic octenol” value (mosquitoes [1]; 50 mg (R) isomer) was 26% and the average mosquitoes caught (mosquitoes [1]; lure with 50 mg (R) in 1.5 ml diethyl phthalate, 1.5 mg/day or less release) was 11.8 mosquitoes.

`C=C[C@@H](O)CCCCCCC` [(S)-(+)-1-decen-3-ol, reference compound] gave a total mosquitoes caught (mosquitoes [2]) of 47 mosquitoes.

In the case of `C=C[C@@H](O)CCCCC` [(S)-(+)-1-octen-3-ol, reference compound], the “fewer mosquitoes caught than the trap with no attractant” value (mosquitoes [4]; second test, three traps over nine days) is reported as 37% and the “more mosquitoes captured than the baseline (traps with no attractant)” value (mosquitoes [5]) is reported as 35%.

Reference: patent publication US20060193881A1, “Method and compositions for attracting mosquitoes employing (R)-(-) isomers of 1-alken-3-ols” (Bedoukian Research, Inc., priority 2005, published 2006)
